Columns and labels:
[1] = molecular target: T1, human full-length P2X7 receptor (N-Myc-hP2X7-MDCK cells) (Homo sapiens, UniProt Q99572); test: Apoptosis and P2X7 expression in N-Myc-hP2X7-MDCK cells; type: cell-based; conditions: BzATP 100 μM, 8 hrs
T1 construct: MDCK cells heterologously expressing the human full-length P2X7 receptor tagged with N-Myc at the N-terminus; expressed in transfected cells; host or cells: MDCK (strain II) cells expressing tetracycline-regulated repressor
T1 sequence (Q99572 1-595): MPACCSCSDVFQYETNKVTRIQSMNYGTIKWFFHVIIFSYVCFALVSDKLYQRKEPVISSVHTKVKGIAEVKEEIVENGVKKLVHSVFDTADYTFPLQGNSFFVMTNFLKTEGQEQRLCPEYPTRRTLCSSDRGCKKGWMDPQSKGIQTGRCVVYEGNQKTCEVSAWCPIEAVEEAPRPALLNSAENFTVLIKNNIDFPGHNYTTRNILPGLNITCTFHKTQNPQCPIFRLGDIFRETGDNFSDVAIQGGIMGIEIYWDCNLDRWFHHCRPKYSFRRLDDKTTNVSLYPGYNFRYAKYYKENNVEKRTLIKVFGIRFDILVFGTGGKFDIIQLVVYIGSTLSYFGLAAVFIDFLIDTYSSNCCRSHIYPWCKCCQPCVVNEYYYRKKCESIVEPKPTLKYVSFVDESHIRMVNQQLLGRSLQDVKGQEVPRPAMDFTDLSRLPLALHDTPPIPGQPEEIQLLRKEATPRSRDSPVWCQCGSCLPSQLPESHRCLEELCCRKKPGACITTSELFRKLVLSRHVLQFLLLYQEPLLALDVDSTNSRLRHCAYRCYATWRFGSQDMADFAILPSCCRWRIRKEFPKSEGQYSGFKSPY

[2] = test system: mouse wild-type keratinocytes; test: Cytosolic calcium (Fluo-4) in mouse wild-type keratinocytes; type: cell-based
Procedure: FIG. 17A: Time course of changes in cytosolic calcium (ΔCa^2+i), in medium containing 1.2 mM Ca^2+ (upper trace) or 1.2 mM Ca2+ plus 1.2 mM EGTA (lower trace).
FIG. 17C: Dose response profile comparison between ΔCa^2+i and Eth-Br influx. Cells were treated with each BzATP concentration for […]. Levels of ΔCa^2+i (empty circles) were determined 2 min after adding BzATP; changes in Eth-Br fluorescence (filled circles) were determined 5 min after adding BzATP. Values=means±SD. Experiments were repeated 3 times. AU=arbitrary units.
Changes in Ca^2+i in cultured cells were determined in terms of changes in intracellular Fluo-4 fluorescence using dynamic confocal laser scanning microscopy. Cultured mouse keratinocytes were loaded with 5 μM Fluo-4/AM, and imaged with a Zeiss LSM 510 inverted real-time confocal microscope. Images were collected at 488 nm/505 nm (exc/emi) at intervals of 10 to 15 seconds after treatment with 100 μM BzATP, added to the perfusate. For ethidium bromide influx experiments, glass-bottomed dishes cultured with mouse keratinocytes were placed in the microscope. Images (collected at 488 nm/505 nm [exc/emi]) were taken before, and at intervals of 30 seconds after adding 5 μM ethidium bromide to the perfusate as described. Average fluorescence intensity was quantified from collated images using MetaVue software (Fryer Company Inc., Huntley, Ill.) by subtracting the basal intensity value.

augmentation of apoptosis [1]: 2.5 fold
Structure (SMILES): Nc1ncnc2c1ncn2[C@@H]1O[C@H](COP(=O)(O)OP(=O)(O)OP(=O)(O)O)[C@@H](OC(=O)c2ccc(C(=O)c3ccccc3)cc2)[C@H]1O [BzATP, 3′-O-(4-benzoylbenzoyl)adenosine triphosphate]
concentration of pre-maximal response, cytosolic calcium [2]: 100 to 250 µM | threshold concentration, cytosolic calcium [2]: 50 to 100 nM | change in cytosolic calcium ([2]; 100 μM BzATP, 1.2 mM Ca^2+): acute increase in cytosolic calcium | duration of increase in cytosolic calcium ([2]; 100 μM BzATP, 1.2 mM Ca^2+): at least 6 minutes

Reference: US8314068B2, “P2X7 inhibition of epithelial cancers and papillomas” (University Hospitals of Cleveland, priority 2009, dated 2012)
